Source: the kinase profiling compilation of Christmann-Franck et al. (2016)

What was measured:
Test in all cases: KINOMEscan competition binding
Details in all cases: compound 10.0 µM
[1] = tested on: ABL1 (human), P00519 [M351T]
ADCK4 (human) = ADCK4 (human) (UniProt Q96D53)
AKT2 (human) = AKT2 (human) (UniProt P31751)
CAMK1D (human) = CAMK1D (human) (UniProt Q8IU85)
CDK19 (human) = CDK19 (human) (UniProt Q9BWU1)
DCLK3 (human) = DCLK3 (human) (UniProt Q9C098)
EPHA3 (human) = EPHA3 (human) (UniProt P29320)
FGFR1 (human) = FGFR1 (human) (UniProt P11362)
FGFR3 (human) = FGFR3 (human) (UniProt P22607)
HCK (human) = HCK (human) (UniProt P08631)
ITK (human) = ITK (human) (UniProt Q08881)
[2] = biological target: JAK2 JH1 catalytic (human) (UniProt O60674)
[3] = tested on: KIT (human), P10721 [D816V]
LTK (human) = LTK (human) (UniProt P29376)
MAP3K12 (human) = MAP3K12 (human) (UniProt Q12852)
MAP4K1 (human) = MAP4K1 (human) (UniProt Q92918)
MAP4K2 (human) = MAP4K2 (human) (UniProt Q12851)
MAPK15 (human) = MAPK15 (human) (UniProt Q8TD08)
MAPK8 (human) = MAPK8 (human) (UniProt P45983)
MARK4 (human) = MARK4 (human) (UniProt Q96L34)
MUSK (human) = MUSK (human) (UniProt O15146)
MYLK (human) = MYLK (human) (UniProt Q15746)
MYLK2 (human) = MYLK2 (human) (UniProt Q9H1R3)
NLK (human) = NLK (human) (UniProt Q9UBE8)
NTRK3 (human) = NTRK3 (human) (UniProt Q16288)
PAK4 (human) = PAK4 (human) (UniProt O96013)
PHKG1 (human) = PHKG1 (human) (UniProt Q16816)
PRKCH (human) = PRKCH (human) (UniProt P24723)
PRKG1 (human) = PRKG1 (human) (UniProt Q13976)
PRKG2 (human) = PRKG2 (human) (UniProt Q13237)
PTK2B (human) = PTK2B (human) (UniProt Q14289)
RPS6KA5 KD1 (human) = RPS6KA5 KD1 (human) (UniProt O75582)
SIK1 (human) = SIK1 (human) (UniProt P57059)
SRPK2 (human) = SRPK2 (human) (UniProt P78362)
STK32B (human) = STK32B (human) (UniProt Q9NY57)
TAOK3 (human) = TAOK3 (human) (UniProt Q9H2K8)
TEC (human) = TEC (human) (UniProt P42680)
TESK1 (human) = TESK1 (human) (UniProt Q15569)
TNK1 (human) = TNK1 (human) (UniProt Q13470)
[4] = biological target: TYK2 JH1 catalytic (human) (UniProt P29597)

Chain of JAK2 JH1 catalytic (human) (O60674 whole entry, looked up): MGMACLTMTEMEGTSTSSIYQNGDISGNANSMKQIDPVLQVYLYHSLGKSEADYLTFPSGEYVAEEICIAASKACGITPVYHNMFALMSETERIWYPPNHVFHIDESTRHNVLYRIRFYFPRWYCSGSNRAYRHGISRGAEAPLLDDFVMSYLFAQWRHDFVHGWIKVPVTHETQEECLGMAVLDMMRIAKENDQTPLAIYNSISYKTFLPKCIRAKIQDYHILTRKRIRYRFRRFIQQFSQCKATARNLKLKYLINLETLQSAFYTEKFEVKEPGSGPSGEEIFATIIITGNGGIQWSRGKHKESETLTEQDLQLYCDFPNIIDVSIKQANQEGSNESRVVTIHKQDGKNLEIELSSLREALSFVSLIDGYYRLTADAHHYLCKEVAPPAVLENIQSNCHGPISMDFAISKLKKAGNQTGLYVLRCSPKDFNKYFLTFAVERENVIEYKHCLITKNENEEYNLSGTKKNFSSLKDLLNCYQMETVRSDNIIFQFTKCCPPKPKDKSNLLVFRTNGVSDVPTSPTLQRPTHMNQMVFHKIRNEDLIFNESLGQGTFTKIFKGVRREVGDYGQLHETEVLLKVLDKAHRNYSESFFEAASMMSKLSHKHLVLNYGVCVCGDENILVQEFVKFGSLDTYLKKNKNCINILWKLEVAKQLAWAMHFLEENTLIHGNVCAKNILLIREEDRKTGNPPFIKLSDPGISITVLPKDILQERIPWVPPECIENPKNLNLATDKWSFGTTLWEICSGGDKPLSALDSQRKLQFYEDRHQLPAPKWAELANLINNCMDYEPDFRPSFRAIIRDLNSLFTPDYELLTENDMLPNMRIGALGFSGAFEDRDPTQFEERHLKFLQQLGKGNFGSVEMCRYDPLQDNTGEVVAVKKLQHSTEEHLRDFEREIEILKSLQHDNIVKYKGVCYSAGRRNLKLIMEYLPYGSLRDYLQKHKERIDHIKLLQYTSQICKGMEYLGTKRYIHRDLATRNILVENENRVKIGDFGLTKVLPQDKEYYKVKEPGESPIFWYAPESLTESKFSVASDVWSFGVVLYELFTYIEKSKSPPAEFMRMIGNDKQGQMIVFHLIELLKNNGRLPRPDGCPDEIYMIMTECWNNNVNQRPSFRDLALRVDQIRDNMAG
Chain of PRKG2 (human) (Q13237 whole entry, looked up): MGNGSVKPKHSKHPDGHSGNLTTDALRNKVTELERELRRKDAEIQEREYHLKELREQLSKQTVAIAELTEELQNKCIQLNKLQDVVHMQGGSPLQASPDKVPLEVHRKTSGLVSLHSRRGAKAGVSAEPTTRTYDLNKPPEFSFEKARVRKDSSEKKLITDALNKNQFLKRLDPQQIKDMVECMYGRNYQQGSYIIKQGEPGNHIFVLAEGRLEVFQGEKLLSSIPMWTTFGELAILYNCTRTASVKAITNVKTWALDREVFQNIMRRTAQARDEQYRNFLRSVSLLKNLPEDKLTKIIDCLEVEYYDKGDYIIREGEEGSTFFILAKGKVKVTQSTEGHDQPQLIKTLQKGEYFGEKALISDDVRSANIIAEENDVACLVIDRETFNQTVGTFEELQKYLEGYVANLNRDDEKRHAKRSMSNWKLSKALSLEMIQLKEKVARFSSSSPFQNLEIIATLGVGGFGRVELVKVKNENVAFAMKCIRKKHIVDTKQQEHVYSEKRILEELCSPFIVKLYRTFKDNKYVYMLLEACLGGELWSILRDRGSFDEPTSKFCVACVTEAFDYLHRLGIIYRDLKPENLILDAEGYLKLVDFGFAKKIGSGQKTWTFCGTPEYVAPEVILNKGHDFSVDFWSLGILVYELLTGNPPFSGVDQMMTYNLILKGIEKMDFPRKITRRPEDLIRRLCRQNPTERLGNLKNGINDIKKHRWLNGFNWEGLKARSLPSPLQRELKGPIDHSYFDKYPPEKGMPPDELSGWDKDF
Chain of STK32B (human) (Q9NY57 whole entry, looked up): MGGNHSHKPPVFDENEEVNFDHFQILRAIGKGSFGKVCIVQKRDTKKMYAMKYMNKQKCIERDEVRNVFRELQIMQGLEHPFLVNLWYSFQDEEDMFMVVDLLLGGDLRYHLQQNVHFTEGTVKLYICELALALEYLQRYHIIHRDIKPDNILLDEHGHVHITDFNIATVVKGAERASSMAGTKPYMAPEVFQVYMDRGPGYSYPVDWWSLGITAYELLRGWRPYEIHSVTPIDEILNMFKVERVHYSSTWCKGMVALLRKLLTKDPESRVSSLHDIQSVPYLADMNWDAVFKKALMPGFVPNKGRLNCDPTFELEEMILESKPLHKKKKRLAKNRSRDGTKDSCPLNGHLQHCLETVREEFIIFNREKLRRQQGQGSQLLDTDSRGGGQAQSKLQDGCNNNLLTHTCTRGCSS
Chain of CDK19 (human) (Q9BWU1 whole entry, looked up): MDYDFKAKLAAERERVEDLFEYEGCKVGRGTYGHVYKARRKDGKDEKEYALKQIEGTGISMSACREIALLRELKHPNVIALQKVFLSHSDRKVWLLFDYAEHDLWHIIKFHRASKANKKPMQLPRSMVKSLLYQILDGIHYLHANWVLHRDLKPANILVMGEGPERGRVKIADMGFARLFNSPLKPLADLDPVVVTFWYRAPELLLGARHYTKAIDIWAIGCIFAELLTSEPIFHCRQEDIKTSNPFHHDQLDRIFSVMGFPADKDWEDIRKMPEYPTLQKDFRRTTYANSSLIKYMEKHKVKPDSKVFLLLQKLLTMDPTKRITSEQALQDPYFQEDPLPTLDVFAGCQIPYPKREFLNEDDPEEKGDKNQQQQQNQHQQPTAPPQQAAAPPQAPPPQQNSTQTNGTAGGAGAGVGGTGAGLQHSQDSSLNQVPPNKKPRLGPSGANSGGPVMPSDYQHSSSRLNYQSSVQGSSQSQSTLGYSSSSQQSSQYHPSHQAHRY
Chain of ADCK4 (human) (Q96D53 whole entry, looked up): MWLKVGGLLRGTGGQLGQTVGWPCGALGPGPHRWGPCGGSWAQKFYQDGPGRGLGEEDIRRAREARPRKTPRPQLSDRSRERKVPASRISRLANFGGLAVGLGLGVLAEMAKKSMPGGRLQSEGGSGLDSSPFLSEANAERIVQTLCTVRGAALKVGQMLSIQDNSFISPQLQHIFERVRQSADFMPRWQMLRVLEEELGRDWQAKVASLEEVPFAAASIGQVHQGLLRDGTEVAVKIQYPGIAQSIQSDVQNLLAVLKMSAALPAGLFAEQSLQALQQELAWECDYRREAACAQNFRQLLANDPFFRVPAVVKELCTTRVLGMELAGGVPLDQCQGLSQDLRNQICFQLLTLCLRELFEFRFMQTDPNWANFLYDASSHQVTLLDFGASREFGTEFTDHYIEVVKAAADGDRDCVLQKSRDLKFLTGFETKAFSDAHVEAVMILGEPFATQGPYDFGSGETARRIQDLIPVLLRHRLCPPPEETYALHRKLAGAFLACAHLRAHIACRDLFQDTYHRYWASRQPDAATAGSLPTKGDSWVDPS
Chain of DCLK3 (human) (Q9C098 whole entry, looked up): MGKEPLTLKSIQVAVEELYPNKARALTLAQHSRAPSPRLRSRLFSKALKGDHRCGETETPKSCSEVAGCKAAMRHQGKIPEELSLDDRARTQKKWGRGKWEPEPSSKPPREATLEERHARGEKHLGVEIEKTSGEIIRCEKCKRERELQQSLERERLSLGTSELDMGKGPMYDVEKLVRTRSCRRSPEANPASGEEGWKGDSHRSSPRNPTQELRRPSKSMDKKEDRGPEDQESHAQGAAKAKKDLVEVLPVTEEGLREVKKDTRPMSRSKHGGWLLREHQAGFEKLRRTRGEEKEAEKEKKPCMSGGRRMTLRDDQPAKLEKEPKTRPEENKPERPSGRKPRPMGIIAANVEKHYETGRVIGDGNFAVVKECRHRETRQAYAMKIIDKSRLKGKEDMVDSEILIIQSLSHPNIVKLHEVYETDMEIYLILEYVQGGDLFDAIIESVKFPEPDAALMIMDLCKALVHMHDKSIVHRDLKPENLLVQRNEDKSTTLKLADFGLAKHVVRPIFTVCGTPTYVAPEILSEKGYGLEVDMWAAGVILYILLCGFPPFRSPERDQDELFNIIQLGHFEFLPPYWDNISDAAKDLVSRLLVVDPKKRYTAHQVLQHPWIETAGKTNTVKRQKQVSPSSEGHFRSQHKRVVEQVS
Chain of TESK1 (human) (Q15569 whole entry, looked up): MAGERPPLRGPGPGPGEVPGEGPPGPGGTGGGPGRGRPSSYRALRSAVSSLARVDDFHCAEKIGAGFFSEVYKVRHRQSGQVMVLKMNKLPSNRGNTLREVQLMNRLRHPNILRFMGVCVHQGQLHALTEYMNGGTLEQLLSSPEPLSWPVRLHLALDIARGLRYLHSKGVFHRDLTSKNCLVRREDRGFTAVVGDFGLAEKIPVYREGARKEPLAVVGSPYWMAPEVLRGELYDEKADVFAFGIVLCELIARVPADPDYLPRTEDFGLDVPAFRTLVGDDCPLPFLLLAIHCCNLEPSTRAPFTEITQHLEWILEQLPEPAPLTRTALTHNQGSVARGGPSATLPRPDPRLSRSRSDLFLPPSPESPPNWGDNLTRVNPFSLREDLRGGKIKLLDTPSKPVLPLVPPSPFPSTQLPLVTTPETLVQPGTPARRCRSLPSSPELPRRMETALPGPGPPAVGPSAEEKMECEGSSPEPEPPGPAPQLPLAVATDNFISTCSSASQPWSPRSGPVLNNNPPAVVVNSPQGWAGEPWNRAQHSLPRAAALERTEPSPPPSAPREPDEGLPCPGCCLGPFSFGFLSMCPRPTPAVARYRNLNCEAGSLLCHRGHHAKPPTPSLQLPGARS
Chain of CAMK1D (human) (Q8IU85 whole entry, looked up): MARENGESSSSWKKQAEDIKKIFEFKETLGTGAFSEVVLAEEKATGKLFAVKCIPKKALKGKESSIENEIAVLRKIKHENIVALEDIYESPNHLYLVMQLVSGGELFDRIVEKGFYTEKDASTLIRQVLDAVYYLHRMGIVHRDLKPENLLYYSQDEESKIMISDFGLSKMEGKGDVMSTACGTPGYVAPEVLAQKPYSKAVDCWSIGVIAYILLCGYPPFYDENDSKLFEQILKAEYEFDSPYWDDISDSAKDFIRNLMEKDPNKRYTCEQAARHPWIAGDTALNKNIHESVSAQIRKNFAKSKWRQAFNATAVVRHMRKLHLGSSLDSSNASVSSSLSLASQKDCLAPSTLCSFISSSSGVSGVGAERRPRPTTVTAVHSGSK

In the case of `Cc1ccc2nc(NCCN)c3ncc(C)n3c2c1`, the kinase still bound, per cent of control [1] is reported as 100%, the kinase still bound, per cent of control (ADCK4 (human)) is reported as 24% and the kinase still bound, per cent of control (AKT2 (human)) is reported as 100%. It also gave a kinase still bound, per cent of control (CAMK1D (human)) of 69%, a kinase still bound, per cent of control (CDK19 (human)) of 100% and a kinase still bound, per cent of control (DCLK3 (human)) of 76%. For the same molecule, the kinase still bound, per cent of control (EPHA3 (human)) was 100%, the kinase still bound, per cent of control (FGFR1 (human)) was 100% and the kinase still bound, per cent of control (FGFR3 (human)) was 99%. It also gave a kinase still bound, per cent of control (HCK (human)) of 100%, a kinase still bound, per cent of control (ITK (human)) of 100% and a kinase still bound, per cent of control [2] of 100%. It also gave a kinase still bound, per cent of control [3] of 88%, a kinase still bound, per cent of control (LTK (human)) of 95% and a kinase still bound, per cent of control (MAP3K12 (human)) of 84%. It also gave a kinase still bound, per cent of control (MAP4K1 (human)) of 81%, a kinase still bound, per cent of control (MAP4K2 (human)) of 92% and a kinase still bound, per cent of control (MAPK15 (human)) of 19%. The kinase still bound, per cent of control (MAPK8 (human)) was 66%, the kinase still bound, per cent of control (MARK4 (human)) was 100% and the kinase still bound, per cent of control (MUSK (human)) was 100%. The kinase still bound, per cent of control (MYLK (human)) was 79%, the kinase still bound, per cent of control (MYLK2 (human)) was 71% and the kinase still bound, per cent of control (NLK (human)) was 100%. The kinase still bound, per cent of control (NTRK3 (human)) was 100%, the kinase still bound, per cent of control (PAK4 (human)) was 100% and the kinase still bound, per cent of control (PHKG1 (human)) was 95%. It also gave a kinase still bound, per cent of control (PRKCH (human)) of 94%, a kinase still bound, per cent of control (PRKG1 (human)) of 100% and a kinase still bound, per cent of control (PRKG2 (human)) of 100%. For the same molecule, the kinase still bound, per cent of control (PTK2B (human)) was 100%, the kinase still bound, per cent of control (RPS6KA5 KD1 (human)) was 100% and the kinase still bound, per cent of control (SIK1 (human)) was 100%. The kinase still bound, per cent of control (SRPK2 (human)) was 89%, the kinase still bound, per cent of control (STK32B (human)) was 100% and the kinase still bound, per cent of control (TAOK3 (human)) was 59%. For the same molecule, the kinase still bound, per cent of control (TEC (human)) was 100%, the kinase still bound, per cent of control (TESK1 (human)) was 79% and the kinase still bound, per cent of control (TNK1 (human)) was 100%. For the same molecule, the kinase still bound, per cent of control [4] was 100%.

`CCCS(=O)(=O)Nc1ccc(F)c(C(=O)c2c[nH]c3ncc(-c4ccc(Cl)cc4)cc23)c1F` gave a kinase still bound, per cent of control [1] of 55%, a kinase still bound, per cent of control (ADCK4 (human)) of 100% and a kinase still bound, per cent of control (AKT2 (human)) of 76%. The kinase still bound, per cent of control (CAMK1D (human)) was 100%, the kinase still bound, per cent of control (CDK19 (human)) was 0.8% and the kinase still bound, per cent of control (DCLK3 (human)) was 47%. For the same molecule, the kinase still bound, per cent of control (EPHA3 (human)) was 44%, the kinase still bound, per cent of control (FGFR1 (human)) was 49% and the kinase still bound, per cent of control (FGFR3 (human)) was 93%. The kinase still bound, per cent of control (HCK (human)) was 13%, the kinase still bound, per cent of control (ITK (human)) was 100% and the kinase still bound, per cent of control [2] was 84%. For the same molecule, the kinase still bound, per cent of control [3] was 52%, the kinase still bound, per cent of control (LTK (human)) was 100% and the kinase still bound, per cent of control (MAP3K12 (human)) was 62%. It also gave a kinase still bound, per cent of control (MAP4K1 (human)) of 20%, a kinase still bound, per cent of control (MAP4K2 (human)) of 59% and a kinase still bound, per cent of control (MAPK15 (human)) of 89%. The kinase still bound, per cent of control (MAPK8 (human)) was 18%, the kinase still bound, per cent of control (MARK4 (human)) was 100% and the kinase still bound, per cent of control (MUSK (human)) was 99%. The kinase still bound, per cent of control (MYLK (human)) was 91%, the kinase still bound, per cent of control (MYLK2 (human)) was 18% and the kinase still bound, per cent of control (NLK (human)) was 81%. It also gave a kinase still bound, per cent of control (NTRK3 (human)) of 65%, a kinase still bound, per cent of control (PAK4 (human)) of 86% and a kinase still bound, per cent of control (PHKG1 (human)) of 100%. It also gave a kinase still bound, per cent of control (PRKCH (human)) of 100%, a kinase still bound, per cent of control (PRKG1 (human)) of 100% and a kinase still bound, per cent of control (PTK2B (human)) of 100%. It also gave a kinase still bound, per cent of control (RPS6KA5 KD1 (human)) of 98%, a kinase still bound, per cent of control (SIK1 (human)) of 2.8% and a kinase still bound, per cent of control (SRPK2 (human)) of 100%. The kinase still bound, per cent of control (STK32B (human)) was 100%, the kinase still bound, per cent of control (TAOK3 (human)) was 74% and the kinase still bound, per cent of control (TEC (human)) was 100%. For the same molecule, the kinase still bound, per cent of control (TESK1 (human)) was 29%, the kinase still bound, per cent of control (TNK1 (human)) was 100% and the kinase still bound, per cent of control [4] was 47%.

Molecule `CCC(=O)N1CCN(c2ccc(-n3c(=O)ccc4cnc5ccc(-c6cnc7ccccc7c6)cc5c43)cc2C(F)(F)F)CC1` has a kinase still bound, per cent of control [1] of 100%, a kinase still bound, per cent of control (ADCK4 (human)) of 15% and a kinase still bound, per cent of control (AKT2 (human)) of 100%. The kinase still bound, per cent of control (CAMK1D (human)) was 88%, the kinase still bound, per cent of control (CDK19 (human)) was 1.2% and the kinase still bound, per cent of control (DCLK3 (human)) was 97%. The kinase still bound, per cent of control (EPHA3 (human)) was 70%, the kinase still bound, per cent of control (FGFR1 (human)) was 96% and the kinase still bound, per cent of control (FGFR3 (human)) was 42%. The kinase still bound, per cent of control (HCK (human)) was 77%, the kinase still bound, per cent of control (ITK (human)) was 100% and the kinase still bound, per cent of control [2] was 65%. It also gave a kinase still bound, per cent of control (LTK (human)) of 77%, a kinase still bound, per cent of control (MAP3K12 (human)) of 100% and a kinase still bound, per cent of control (MAP4K1 (human)) of 30%. For the same molecule, the kinase still bound, per cent of control (MAP4K2 (human)) was 35%, the kinase still bound, per cent of control (MAPK15 (human)) was 79% and the kinase still bound, per cent of control (MAPK8 (human)) was 22%. The kinase still bound, per cent of control (MARK4 (human)) was 100%, the kinase still bound, per cent of control (MUSK (human)) was 100% and the kinase still bound, per cent of control (MYLK (human)) was 87%. For the same molecule, the kinase still bound, per cent of control (MYLK2 (human)) was 40%, the kinase still bound, per cent of control (NLK (human)) was 25% and the kinase still bound, per cent of control (NTRK3 (human)) was 100%. For the same molecule, the kinase still bound, per cent of control (PAK4 (human)) was 100%, the kinase still bound, per cent of control (PHKG1 (human)) was 100% and the kinase still bound, per cent of control (PRKCH (human)) was 92%. The kinase still bound, per cent of control (PRKG1 (human)) was 86%, the kinase still bound, per cent of control (PRKG2 (human)) was 78% and the kinase still bound, per cent of control (PTK2B (human)) was 100%. The kinase still bound, per cent of control (RPS6KA5 KD1 (human)) was 100%, the kinase still bound, per cent of control (SIK1 (human)) was 80% and the kinase still bound, per cent of control (SRPK2 (human)) was 100%. For the same molecule, the kinase still bound, per cent of control (STK32B (human)) was 87%, the kinase still bound, per cent of control (TAOK3 (human)) was 76% and the kinase still bound, per cent of control (TEC (human)) was 99%. It also gave a kinase still bound, per cent of control (TESK1 (human)) of 58%, a kinase still bound, per cent of control (TNK1 (human)) of 6.8% and a kinase still bound, per cent of control [4] of 70%.

`O=C(O)c1ccc(Nc2ncc3c(n2)-c2ccc(Cl)cc2C(c2c(F)cccc2F)=NC3)cc1` showed a kinase still bound, per cent of control (ADCK4 (human)) of 95%, a kinase still bound, per cent of control (AKT2 (human)) of 100% and a kinase still bound, per cent of control (CAMK1D (human)) of 98%. For the same molecule, the kinase still bound, per cent of control (CDK19 (human)) was 96%, the kinase still bound, per cent of control (DCLK3 (human)) was 92% and the kinase still bound, per cent of control (EPHA3 (human)) was 15%. The kinase still bound, per cent of control (FGFR1 (human)) was 14%, the kinase still bound, per cent of control (FGFR3 (human)) was 9% and the kinase still bound, per cent of control [2] was 100%. The kinase still bound, per cent of control (LTK (human)) was 62%, the kinase still bound, per cent of control (MAP3K12 (human)) was 100% and the kinase still bound, per cent of control (MAP4K1 (human)) was 71%. The kinase still bound, per cent of control (MAP4K2 (human)) was 88%, the kinase still bound, per cent of control (MAPK15 (human)) was 90% and the kinase still bound, per cent of control (MAPK8 (human)) was 100%. The kinase still bound, per cent of control (MARK4 (human)) was 100%, the kinase still bound, per cent of control (MUSK (human)) was 93% and the kinase still bound, per cent of control (MYLK (human)) was 95%. The kinase still bound, per cent of control (MYLK2 (human)) was 100%, the kinase still bound, per cent of control (NLK (human)) was 82% and the kinase still bound, per cent of control (NTRK3 (human)) was 65%. The kinase still bound, per cent of control (PAK4 (human)) was 90%, the kinase still bound, per cent of control (PHKG1 (human)) was 100% and the kinase still bound, per cent of control (PRKCH (human)) was 100%. For the same molecule, the kinase still bound, per cent of control (PRKG1 (human)) was 100%, the kinase still bound, per cent of control (PRKG2 (human)) was 96% and the kinase still bound, per cent of control (RPS6KA5 KD1 (human)) was 99%. For the same molecule, the kinase still bound, per cent of control (SIK1 (human)) was 5.7%, the kinase still bound, per cent of control (SRPK2 (human)) was 80% and the kinase still bound, per cent of control (STK32B (human)) was 38%. For the same molecule, the kinase still bound, per cent of control (TAOK3 (human)) was 95%, the kinase still bound, per cent of control (TEC (human)) was 2% and the kinase still bound, per cent of control (TESK1 (human)) was 100%. It also gave a kinase still bound, per cent of control (TNK1 (human)) of 16% and a kinase still bound, per cent of control [4] of 100%.
